Assay results from patent publication US10421782B2, “Cyclic cationic peptides with antimicrobial activity” (I.C.F. S.R.L., priority 2012, dated 2019).
In brackets after ≈: the same amount, converted by molar mass. Several values for one entry are separate records, joined by “and”; a condition that tells them apart may be missing. Identical values can stand only once. Like-named read-outs stand apart in the source and are kept apart here. Where a SMILES comes first, the peptide text is derived from it. Bridges are numbered along the chain shown (N, C = ends).

Columns and labels:
Jurkat cells = assay: Cytotoxicity of peptides against Jurkat cells (Trypan Blue); format: cell-based; conditions: 20 μM
Description: Cytotoxicity of the peptides against T lymphocytes, for example Jurkat cells, was determined seeding the cells at a density of about 5*10^5 cells/ml in the presence and in the absence of peptides and incubating overnight at 37° C. in thermostat under CO2. As a negative cytotoxicity control, a medium lacking the test peptide was used, while as a positive cytotoxicity control, a medium containing 0.2% Triton X-100 was used, to completely lyse the cells. The cell viability was subsequently determined by adding 20 μl of Trypan Blue in each well, and by incubation of the cells for additional 5 min a 37° C. MCC10 value was calculated as the minimum peptide concentration necessary to induce 10% of cytotoxicity.

[1] = test system: meticillin-resistant S. aureus ATCC 43300; assay: Broth-microdilution test and subsequent plating on agar, Gram-positive bacteria; format: cell-based, Staphylococcus aureus; conditions: 2 h contact at 37° C., CFU count after 24 h
Description: (§1) For each bacterial strain, 3-5 morphologically similar colonies were drawn from fresh cultures, inoculated in Brain Hearth Infusion broth liquid medium and incubated at the temperature of 37° C. under shaking at 225 r.p.m. for 3-4 h. Subsequently, the bacterial suspension was centrifuged at 1000 g for 20 min and the thus obtained pellet was resuspended in phosphate buffer 10 mM. Turbidity was measured in a spectrophotometer with absorbance at 600 nm, equivalent in the range 0.08-0.13 to a concentration of about 10^8 CFU/ml. The bacterial suspension was diluted 1:100 in phosphate buffer 10 mM, and within 30 min, 50 microliters of such bacterial suspension (10^6 CFU/ml) were inoculated in each well of the microtiter plate, to obtain a final bacterial concentration of about 5×10^5 CFU/ml.
(§2) Several synthetic peptides were tested for their ability to inhibit bacterial growth. Fifty microliters of peptide at a concentration comprised between about 0.2 mM and about 50 mM were added to 96-well U-bottom plates containing phosphate buffer and one of the following bacteria: S. aureus ATCC 25923, meticillin-resistant S. aureus ATCC 43300. After 2 hour incubation at 37° C., bacteria were transferred on a solid medium. As a control, the bacterial cultures were cultured in the absence of peptide.
(§3) The bacterial suspension was put in contact for two hours with different concentrations of the peptide at the temperature of 37° C. After incubation, 20 μl were drawn from the wells of each dilution and seeded on solid medium, Columbia agar supplemented with 5% bovine red blood cells for Gram-positive bacteria. The inoculum was evenly distributed on the agarized medium by means of a sterile disposable loop. After incubation for 24 hours at the temperature of 37° C., counting of the bacterial colonies (CFU) was performed.

S. aureus ATCC 25923 = assay: as above; format: cell-based, Staphylococcus aureus; conditions: meticillin-sensitive, 2 h contact at 37° C., CFU count after 24 h
Description: as §1, §2, §3

[2] = test system: Pseudomonas aeruginosa ATCC 27853; format: cell-based; conditions: for LD90 P. aeruginosa ATCC 27853: 2 h contact at 37° C., CFU count after 24 h
Description: as §1, with “min” for “min,”
(§4) Several peptides were tested for their ability to inhibit bacterial growth in liquid culture. Fifty microliters of peptide at a concentration comprised between about 0.2 mM and 50 mM were added in 96-well U-bottom plates containing liquid growth medium and one of the following bacteria: Escherichia coli ATCC 25922, P. aeruginosa ATCC 27853, Stenotrophomonas maltophilia ATCC 13637. After 2 hour incubation at 37° C., bacteria were transferred on a solid medium. As a growth control, bacterial cultures were cultured in the absence of peptides.
as §3, with “medium,” for “medium, Columbia”, “agar McConkey.” for “agar supplemented with 5% bovine red blood cells for Gram-positive bacteria.”, “24 h” for “24 hours”

[3] = test system: Escherichia coli ATCC 25922; format: cell-based; conditions: for LD90 E. coli ATCC 25922: 2 h contact at 37° C., CFU count after 24 h
Description: as §1, with “min” for “min,”
as §4
as §3, with “medium,” for “medium, Columbia”, “agar McConkey.” for “agar supplemented with 5% bovine red blood cells for Gram-positive bacteria.”, “24 h” for “24 hours”

[4] = test system: Stenotrophomonas maltophilia ATCC 13637; assay: Broth-microdilution test and subsequent plating on agar, Gram-negative bacteria; format: cell-based; conditions: 2 h contact at 37° C., CFU count after 24 h
Description: as §1, with “min” for “min,”
as §4
as §3, with “medium,” for “medium, Columbia”, “agar McConkey.” for “agar supplemented with 5% bovine red blood cells for Gram-positive bacteria.”, “24 h” for “24 hours”

[5] = test system: Candida albicans ATCC 10231; assay: Broth-microdilution test and subsequent plating on agar, fungi (yeasts); format: cell-based; conditions: 2 h contact at 37° C., CFU count on agar Sabouraud
Description: (§5) The inoculum was set up by culturing Candida albicans ATCC 10231 and Malassezia pachydermatis ATCC 14522 in Czapek-Dox broth medium (DIFCO) for 48-72 h. On the assay day, the fungal culture was centrifuged at 1700×g for 15 min, the pellet was resuspended in phosphate buffer and submitted to shaking by the use of an electric vortex to disperse the fungal cell aggregates. The suspension was diluted until an optical density equal to an opacity of 0.5 on the McFarland turbidimetric scale was reached, which contains approximately 1-5×10^6 cell/ml (Branda J. A., Krantz A. Effectc of yeast on automated cell counting. Am J Clin Pathol., 2006:126, 248-254).
(§6) The peptides were tested for their ability to inhibit fungal growth. Fifty microliters of peptide at a concentration comprised between about 0.2 mM and about 50 mM were added in 96-well U-bottom plates containing phosphate buffer and one of the following fungi: Candida albicans ATCC 10231 and Malassezia pachydermatis ATCC 14522. After 2 h incubation at 37° C., fungi were transferred on the solid medium agar Sabouraud. As a control, fungal cultures were cultured in the absence of peptide.
(§7) The fungal suspension was put in contact for two hours with different concentrations of the peptide at the temperature of 37° C. After incubation, 20 μl were drawn from the wells of each dilution and seeded on the solid medium agar Sabouraud. The inoculum was evenly distributed on the agarized medium by means of a sterile disposable loop. After incubation for 24 h at the temperature of 37° C., counting of the fungal colonies (CFU) was performed.

[6] = test system: Malassezia pachydermatis ATCC 14522; assay: as above; format: cell-based; conditions: 2 h contact at 37° C., CFU count on agar Sabouraud
Description: as §5, §6, §7

E. coli ML-35pYC = assay: Membrane permeabilization assay (CENTA / ONPG kinetics); format: cell-based, Escherichia coli; conditions: peptide 12.5 μg/ml, logistic 4-parameter fit, read up to 240 min; for Inflexion point CENTA: CENTA substrate (periplasmic beta-lactamase)
Description: The strain ML-35pYC of E. coli was used to assay the kinetics of membrane permeabilization performed by the peptides of the invention. This bacterial strain expresses resistance to ampicillin, constitutive expression of cytoplasmic beta-galactosidase, and is engineered with a plasmid for the synthesis of a periplasmic beta-lactamase. Sixty microliters (60 μl) of bacterial suspension of strain ML-35pYC of E. coli were added to 60 μl of a 15 mM solution of ONPG or 1.5 mM of CENTA in phosphate buffer. Subsequently, 120 μl of the test peptides were added to obtain a final concentration of 12.5 μg/ml. The kinetics of the reaction was evaluated by recording the value of absorbance at […] and 405 nm, for ONPG and CENTA respectively, every 10 min up to a maximum of 240 min.
By “fitting” the experimental points with the logistic 4-parameter curve, it was possible to determine the inflexion point, that is the point where the curve changes direction, relative to the 3 test peptides. No inflexion point was observed during the assay with CENTA (inflexion point higher than 500 min).

| Compound | LD90 MRSA ATCC 43300 [1] [µM] | LD90 S. aureus ATCC 25923 (S. aureus ATCC 25923) [µM] | LD90 P. aeruginosa ATCC 27853 [2] [µM] | MBC P. aeruginosa ATCC 27853 [2] [µg/mL] | LD90 E. coli ATCC 25922 [3] [µM] | MBC E. coli ATCC 25922 [3] [µg/mL] | LD90 S. maltophilia ATCC 13637 [4] [µM] | LD90 Candida albicans [5] [µM] | LD90 Malassezia pachydermatis [6] [µM] | Inflexion point CENTA (E. coli ML-35pYC) [min] | also measured |
| --- | --- | --- | --- | --- | --- | --- | --- | --- | --- | --- | --- |
| CC[C@H](C)[C@@H]1NC(=O)CNC(=O)[C@H](CCCNC(=N)N)NC(=O)[C@H](Cc2ccc(O)cc2)NC(=O)[C@@H]2CSSC[C@H](NC1=O)C(=O)N[C@@H](Cc1ccc(O)cc1)C(=O)N[C@@H](CCCNC(=N)N)C(=O)N[C@@H](CCCNC(=N)N)C(=O)N[C@H](C(=O)N[C@@H](CCCNC(=N)N)C(N)=O)CSSC[C@H](NC(=O)[C@H](Cc1c[nH]c3ccccc13)NC(=O)[C@@H](N)CCCCN)C(=O)N[C@@H](Cc1ccccc1)C(=O)N[C@@H](CCCNC(=N)N)C(=O)N[C@@H](C(C)C)C(=O)N2 [tachyplesin-1] (H-KWCFRVCYRGICYRRCR-NH2; disulfide 3-16, 7-12) |  |  |  |  |  |  |  |  |  |  | death of the cells (Jurkat) (Jurkat cells): 10% |
| CC[C@H](C)[C@@H]1NC(=O)[C@H](Cc2ccccc2)NC(=O)[C@H](CCCCN)NC(=O)[C@H](C(C)C)NC(=O)CNC(=O)[C@H](CCCNC(=N)N)NC(=O)[C@H](Cc2c[nH]c3ccccc23)NC(=O)[C@H](CCC(N)=O)NC(=O)[C@H](Cc2c[nH]c3ccccc23)NC(=O)[C@H](CCCCN)NC(=O)[C@H](CCCNC(=N)N)NC(=O)[C@@H](NC(=O)[C@H](Cc2c[nH]c3ccccc23)NC(=O)[C@@H](N)CCCCN)CSSC[C@@H](C(=O)N[C@H](C(=O)O)C(C)C)NC(=O)[C@H](CCCCN)NC1=O (relative stereo) [Peptide P126, LYS*TRP*CYS*ARG*LYS*TRP*GLN*TRP*ARG*GLY*VAL*LYS*PHE*ILE*LYS*CYS*VAL] | >70 | 4.68 | 0.20 | 4.53 (≈ 2.01 µM) | 0.91 | 12.5 (≈ 5.56 µM) | 6.65 | 1.98 | 0.75 | >500 | LD90 MRSA ATCC 43300 ([1]; listed as 126): about 71 μM and ~100 μg/ml; LD90 S. aureus ATCC 25923 (S. aureus ATCC 25923; listed as 126): 4.68 μM and 9.54 μg/ml; LD90 P. aeruginosa ATCC 27853 ([2]; listed as 126): 0.20 μM and 0.4 μg/ml; LD90 E. coli ATCC 25922 ([3]; listed as 126): 1.86 μg/ml and 0.91 μM; LD90 Candida albicans ([5]; listed as 126): about 2 μM |
| CC(C)C[C@@H]1NC(=O)CNC(=O)[C@H](CCCNC(=N)N)NC(=O)[C@H](C(C)C)NC(=O)[C@H](CCCCN)NC(=O)[C@H](C(C)C)NC(=O)[C@H](CC(C)C)NC(=O)[C@H](C)NC(=O)[C@@H](NC(=O)CNC(=O)[C@@H](N)CCCCN)CSSC[C@@H](C(=O)N[C@@H](CCCCN)C(=O)O)NC(=O)[C@H](C(C)C)NC(=O)[C@H](CCCCN)NC(=O)[C@H](CC(C)C)NC(=O)[C@H]([C@@H](C)O)NC1=O (relative stereo) [Peptide P72, LYS*GLY*CYS*ALA*LEU*VAL*LYS*VAL*ARG*GLY*LEU*THR*LEU*LYS*VAL*CYS*LYS] | 0.90 | 3.39 | 0.87 | 2.84 (≈ 1.57 µM) | 0.86 | 9.68 (≈ 5.34 µM) | 1.88 | 1.03 | 0.68 | >500 | LD90 MRSA ATCC 43300 ([1]; listed as 72): 0.90 μM and 1.65 μg/ml; LD90 S. aureus ATCC 25923 (S. aureus ATCC 25923; listed as 72): 3.39 μM and 6.16 μg/ml; LD90 P. aeruginosa ATCC 27853 ([2]; listed as 72): 0.87 μM and 1.61 μg/ml; LD90 E. coli ATCC 25922 ([3]; listed as 72): 1.69 μg/ml and 0.86 μM; LD90 S. maltophilia ATCC 13637 ([4]; listed as 72): 1.88 μM and 3.42 μg/ml; LD90 Candida albicans ([5]; listed as 72): 1.03 μM and 1.87 μg/ml; LD90 Malassezia pachydermatis ([6]; listed as 72): 0.68 μM and 1.24 μg/ml; Inflexion point ONPG (E. coli ML-35pYC; ONPG substrate (cytoplasmic beta-galactosidase)): 7.86 min |
